Reference: patent publication US10259810B2, “N-sulfonylated pyrazolo[3,4-b]pyridin-6-carboxamides and method of use” (AbbVie S.à.r.l., priority 2015, dated 2019)

How the values were obtained:
[1] = target: T1, ΔF508-CFTR (Homo sapiens, UniProt P13569, DEL508-508); assay: CFTR cell surface levels using HRP-tagged ΔF508-CFTR expressing CFBE cells, in the presence of a co-corrector; format: cell-based; settings: HRP-tagged ΔF508-CFTR CFBE cells, in the presence of 3 μM co-corrector; for EC50: read-out: EC50
T1 construct: host or cells: CFBE41o-, doxycycline-inducible
T1 sequence (P13569 with tags, fused parts or gaps DEL508-508): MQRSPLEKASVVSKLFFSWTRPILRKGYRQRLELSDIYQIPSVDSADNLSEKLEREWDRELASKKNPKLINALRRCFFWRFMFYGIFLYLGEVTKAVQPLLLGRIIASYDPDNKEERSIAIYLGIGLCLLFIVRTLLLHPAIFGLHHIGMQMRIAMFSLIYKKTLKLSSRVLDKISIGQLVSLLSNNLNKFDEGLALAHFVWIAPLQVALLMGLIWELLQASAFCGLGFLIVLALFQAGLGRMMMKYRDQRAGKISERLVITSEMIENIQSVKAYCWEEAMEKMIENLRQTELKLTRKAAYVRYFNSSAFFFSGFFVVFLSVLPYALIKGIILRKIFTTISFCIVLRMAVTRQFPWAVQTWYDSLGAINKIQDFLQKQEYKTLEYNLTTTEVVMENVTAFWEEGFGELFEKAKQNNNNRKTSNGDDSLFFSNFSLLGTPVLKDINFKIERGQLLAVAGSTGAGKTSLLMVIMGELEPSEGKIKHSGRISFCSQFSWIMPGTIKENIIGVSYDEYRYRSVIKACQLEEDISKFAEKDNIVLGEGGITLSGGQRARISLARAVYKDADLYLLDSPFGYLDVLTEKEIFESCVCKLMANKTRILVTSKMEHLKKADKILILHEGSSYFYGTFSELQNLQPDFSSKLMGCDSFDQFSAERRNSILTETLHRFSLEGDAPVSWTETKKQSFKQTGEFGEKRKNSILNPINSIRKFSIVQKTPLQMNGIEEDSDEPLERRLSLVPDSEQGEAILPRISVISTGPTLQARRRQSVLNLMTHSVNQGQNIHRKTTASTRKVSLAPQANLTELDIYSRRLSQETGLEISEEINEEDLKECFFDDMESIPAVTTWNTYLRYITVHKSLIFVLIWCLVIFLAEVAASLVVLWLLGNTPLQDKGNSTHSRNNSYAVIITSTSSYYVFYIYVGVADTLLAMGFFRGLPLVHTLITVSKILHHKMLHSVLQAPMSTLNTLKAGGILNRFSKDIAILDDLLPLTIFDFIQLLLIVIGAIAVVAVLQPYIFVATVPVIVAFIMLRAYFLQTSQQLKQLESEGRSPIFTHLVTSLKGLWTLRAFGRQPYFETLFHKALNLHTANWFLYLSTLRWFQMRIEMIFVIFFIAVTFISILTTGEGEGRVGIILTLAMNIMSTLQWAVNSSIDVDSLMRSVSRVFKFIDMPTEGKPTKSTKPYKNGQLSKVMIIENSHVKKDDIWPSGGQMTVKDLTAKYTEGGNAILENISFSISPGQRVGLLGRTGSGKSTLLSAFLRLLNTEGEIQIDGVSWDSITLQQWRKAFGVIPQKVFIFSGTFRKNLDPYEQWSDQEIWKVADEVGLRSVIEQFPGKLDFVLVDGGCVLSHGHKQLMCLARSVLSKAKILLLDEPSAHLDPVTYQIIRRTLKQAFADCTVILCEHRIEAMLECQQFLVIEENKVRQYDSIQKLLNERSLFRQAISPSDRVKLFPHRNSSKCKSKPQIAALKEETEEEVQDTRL
In short: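 Chemiluminescent read-out of surface HRP (15 min, dark) after PBS washes. Activity is normalized as 100×(sample−DMSO)/(3 μM co-corrector alone−DMSO).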

[2] = target: T1, ΔF508-CFTR; assay: CFTR cell surface levels using HRP-tagged ΔF508-CFTR expressing CFBE cells, intrinsic corrector capacity; format: cell-based; design: % Activation: concentration or dose not given beside the values; settings: HRP-tagged ΔF508-CFTR expressing CFBE41o- cells, compound alone (intrinsic corrector capacity), 20 hours at 33° C.; for EC50: read-out: EC50
In short: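 Surface ΔF508-CFTR was measured as HRP chemiluminescence from an extracellular-loop-4 tag, expressed as percent activity between DMSO and a […] corrector control.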

| Compound | % Activation [1] [%] | EC50 [1] [µM] | % Activation [2] [%] | EC50 [2] [µM] |
| --- | --- | --- | --- | --- |
| CCS(=O)(=O)NC(=O)c1cc(N2CCC(N3CCCCC3)CC2)c2c(C3CCC3)nn(-c3ccc(F)cc3)c2n1 [Compound 478, 4-([1,4'-bipiperidin]-1'-yl)-3-cyclobutyl-N-(ethanesulfonyl)-1-(4-fluorophenyl)-1H-pyrazolo[3,4-b]pyridine-6-carboxamide] | 476.7 | 0.127 | 295.4 | 2.64 |
| CS(=O)(=O)NC(=O)c1cc(N2CC3(CCCCO3)C2)c2c(C3CCC3)nn(-c3ccccc3)c2n1 [Compound 203, 3-cyclobutyl-N-(methanesulfonyl)-4-(5-oxa-2-azaspiro[3.5]nonan-2-yl)-1-phenyl-1H-pyrazolo[3,4-b]pyridine-6-carboxamide] | 224.63 | 0.328 | 82.59 | 1.02 |
| CS(=O)(=O)NC(=O)c1cc(N2CCC(N3CCCCC3)CC2)c2c(C3CCC3)nn(-c3ccc(F)cc3)c2n1 [Compound 450, 4-([1,4'-bipiperidin]-1'-yl)-3-cyclobutyl-1-(4-fluorophenyl)-N-(methanesulfonyl)-1H-pyrazolo[3,4-b]pyridine-6-carboxamide] | 443.25 | 0.246 | 253.5 | 0.617 |
| CC(C)c1nn(-c2cccc(N3CC(C)(C)C3)c2)c2nc(C(=O)NS(C)(=O)=O)cc(-c3ccc(N4CCOCC4)cc3)c12 [Compound 43, 1-[3-(3,3-dimethylazetidin-1-yl)phenyl]-N-(methanesulfonyl)-4-[4-(morpholin-4-yl)phenyl]-3-(propan-2-yl)-1H-pyrazolo[3,4-b]pyridine-6-carboxamide] | 627 | 0.289 | 379.67 | 0.299 |
| CN(C)S(=O)(=O)NC(=O)c1cc(-c2ccc(N3CCN(C4CC4)CC3)nc2)c2c(C3CCC3)nn(C3CCCCC3)c2n1 [Compound 536, 3-cyclobutyl-1-cyclohexyl-4-[6-(4-cyclopropylpiperazin-1-yl)pyridin-3-yl]-N-(dimethylsulfamoyl)-1H-pyrazolo[3,4-b]pyridine-6-carboxamide] | 341.15 | 0.28 | 125.1 | 0.225 |
| C[C@H](C1CCN(c2cc(C(=O)NS(=O)(=O)N(C)C)nc3c2c(C2CCC2)nn3-c2ccc(F)cc2)CC1)N1CCOCC1 (single isomer, unassigned) [Compound 479] | 524.1 | 0.109 | 305.7 | 0.197 |
| COCC1CCN(c2cc(C(=O)NS(C)(=O)=O)nc3c2c(C(C)C)nn3-c2ccc(=O)n(C)n2)CC1 [Compound 268, N-(methanesulfonyl)-4-[4-(methoxymethyl)piperidin-1-yl]-1-(1-methyl-6-oxo-1,6-dihydropyridazin-3-yl)-3-(propan-2-yl)-1H-pyrazolo[3,4-b]pyridine-6-carboxamide] | 122.05 | > 10 | 5.213 | > 10 |
| CCS(=O)(=O)NC(=O)c1cc(N2CCCCC2)c2c(C)nn(-c3ccccc3)c2n1 [Compound 19, N-(ethanesulfonyl)-3-methyl-1-phenyl-4-(piperidin-1-yl)-1H-pyrazolo[3,4-b]pyridine-6-carboxamide] | 304.05 | 1.63 | 140.85 | 2.65 |
| Cc1cccc(-n2nc(C(C)C)c3c(N4CCC5(CCOCC5)C4)cc(C(=O)NS(C)(=O)=O)nc32)c1 [Compound 171, N-(methanesulfonyl)-1-(3-methylphenyl)-4-(8-oxa-2-azaspiro[4.5]decan-2-yl)-3-(propan-2-yl)-1H-pyrazolo[3,4-b]pyridine-6-carboxamide] | 289.23 | 0.312 | 143.4 | 0.787 |
